{"source": "PubChem BioAssay (NCI)", "test_in_all_cases": "NCI tumour cell line growth inhibition, 48 h", "key": {"HOP-18 NSCLC": {"test_system": "HOP-18 NSCLC"}, "DMS 114 small cell lung": {"test_system": "DMS 114 small cell lung"}, "SNB-78 CNS": {"test_system": "SNB-78 CNS"}, "SF-268 CNS": {"test_system": "SF-268 CNS"}, "SN12K1 renal": {"test_system": "SN12K1 renal"}, "DLD-1 colon": {"test_system": "DLD-1 colon"}, "P388/ADR leukemia": {"test_system": "P388/ADR leukemia"}, "M19-MEL melanoma": {"test_system": "M19-MEL melanoma"}, "DMS 273 small cell lung": {"test_system": "DMS 273 small cell lung"}, "KM20L2 colon": {"test_system": "KM20L2 colon"}, "XF 498 CNS": {"test_system": "XF 498 CNS"}, "P388 leukemia": {"test_system": "P388 leukemia"}}, "note": "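Each compound was tested at five concentrations against cells in 96-well plates for 48 hours. At the TGI there is no net growth.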", "data": [{"compound": "CC1=CC2c3cccc4[nH]cc(c34)CC2N(C)C1", "note": "(configuration not stated)", "values": [{"measurement": "TGI", "setting": "HOP-18 NSCLC", "result": 82.4, "unit": "µM"}, {"measurement": "TGI", "setting": "DMS 114 small cell lung", "result": "> 100", "unit": "µM"}, {"measurement": "TGI", "setting": "SNB-78 CNS", "result": "> 100", "unit": "µM"}, {"measurement": "TGI", "setting": "SF-268 CNS", "result": "> 100", "unit": "µM"}, {"measurement": "TGI", "setting": "SN12K1 renal", "result": "> 31.6", "unit": "µM"}, {"measurement": "TGI", "setting": "DLD-1 colon", "result": "> 88.2", "unit": "µM"}, {"measurement": "TGI", "setting": "P388/ADR leukemia", "result": "> 73.1", "unit": "µM"}, {"measurement": "TGI", "setting": "M19-MEL melanoma", "result": "> 100", "unit": "µM"}, {"measurement": "TGI", "setting": "DMS 273 small cell lung", "result": "> 100", "unit": "µM"}, {"measurement": "TGI", "setting": "KM20L2 colon", "result": "> 100", "unit": "µM"}, {"measurement": "TGI", "setting": "XF 498 CNS", "result": 99.1, "unit": "µM"}, {"measurement": "TGI", "setting": "P388 leukemia", "result": "> 100", "unit": "µM"}]}]}
